ChEMBL document CHEMBL1130786, “Sulfonamide-based hydroxamic acids as potent inhibitors of mouse macrophage metalloelastase” (Bioorg Med Chem Lett, 1998)

What was measured:
[1] = molecular target: Macrophage metalloelastase (Mus musculus) (UniProt P34960); test: Inhibitory activity against mouse macrophage metalloelastase (MME) at 100 nM concentration using [3H]elastin as a substrate
[2] = molecular target: Macrophage metalloelastase (Mus musculus) (UniProt P34960); test: Inhibitory activity against mouse macrophage metalloelastase (MME) using [3H]elastin as a substrate; NI means no inhibition at 100 nM concentration
[3] = molecular target: Macrophage metalloelastase (Mus musculus, UniProt P34960); test: Inhibitory activity against mouse macrophage metalloelastase (MME) using [3H]elastin as a substrate
Chain of Macrophage metalloelastase (P34960 whole entry): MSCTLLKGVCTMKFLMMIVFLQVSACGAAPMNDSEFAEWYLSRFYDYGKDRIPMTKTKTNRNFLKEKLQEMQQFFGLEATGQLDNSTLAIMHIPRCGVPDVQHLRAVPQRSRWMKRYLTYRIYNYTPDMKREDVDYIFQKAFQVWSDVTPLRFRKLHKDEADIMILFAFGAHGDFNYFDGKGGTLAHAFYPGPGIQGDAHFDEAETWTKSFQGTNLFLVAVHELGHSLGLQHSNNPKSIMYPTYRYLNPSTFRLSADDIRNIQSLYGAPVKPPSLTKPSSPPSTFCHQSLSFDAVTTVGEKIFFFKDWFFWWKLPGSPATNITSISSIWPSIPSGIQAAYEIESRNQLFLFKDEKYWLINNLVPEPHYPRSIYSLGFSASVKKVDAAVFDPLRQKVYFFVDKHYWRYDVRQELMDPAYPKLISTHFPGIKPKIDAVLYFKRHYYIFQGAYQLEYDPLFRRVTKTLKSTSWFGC

Chain of Macrophage metalloelastase (Mus musculus) (P34960 110-473 limits assumed): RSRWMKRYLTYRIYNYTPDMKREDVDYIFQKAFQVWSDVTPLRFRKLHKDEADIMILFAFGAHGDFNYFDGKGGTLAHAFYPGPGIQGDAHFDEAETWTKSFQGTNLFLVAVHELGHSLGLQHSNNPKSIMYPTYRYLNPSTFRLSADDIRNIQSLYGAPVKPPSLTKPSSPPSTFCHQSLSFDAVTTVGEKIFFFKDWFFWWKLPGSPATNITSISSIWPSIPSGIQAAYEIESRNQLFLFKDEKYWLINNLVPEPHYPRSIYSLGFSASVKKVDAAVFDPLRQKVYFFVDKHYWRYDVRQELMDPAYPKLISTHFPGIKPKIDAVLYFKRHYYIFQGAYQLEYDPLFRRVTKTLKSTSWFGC

CC(C)CN(CC(=O)NO)S(=O)(=O)c1ccc(N(C)C)cc1
inhibition [1]: 34%

COc1ccc(S(=O)(=O)N(Cc2cccnc2)[C@@H](C(=O)O)C(C)C)cc1
inhibition [2]: No inhibition

COc1ccc(S(=O)(=O)N(Cc2ccccn2)[C@@H](C(=O)NO)C(C)C)cc1
IC50 [3]: 6 nM

COc1ccc(S(=O)(=O)N(CC(=O)NO)Cc2ccncc2)cc1
inhibition [1]: 92%

COc1ccc(S(=O)(=O)N(Cc2ccccc2)C(C)C(=O)NO)cc1 (stereo not given)
IC50 [3]: 13 nM

COc1ccc(S(=O)(=O)N(CC(=O)NO)Cc2ccc(C)cc2)cc1
inhibition [1]: 82%

COc1ccc(S(=O)(=O)N(Cc2ccccc2)[C@@H](C(=O)NO)c2ccccc2)cc1
IC50 [3]: 31 nM

CC(C)CN(CC(=O)NO)S(=O)(=O)c1ccc(N)cc1
inhibition [1]: 22%

COc1ccc(S(=O)(=O)N(CC(=O)NO)Cc2ccc3ccccc3n2)cc1
inhibition [1]: 50%

CC[C@@H](C)C[C@H](C(=O)NO)N(Cc1ccccc1)S(=O)(=O)c1ccc(OC)cc1
IC50 [3]: 4.8 nM

COc1ccc(S(=O)(=O)N(CC(=O)NO)C2CCCCC2)cc1
inhibition [1]: 13%

COc1ccc(S(=O)(=O)N(CC(=O)NO)Cc2cccc(OC)c2)cc1
inhibition [1]: 75%

COc1ccc(S(=O)(=O)N(CC(=O)NO)Cc2ccccc2)cc1
inhibition [1]: 74%

COc1ccc(S(=O)(=O)N(Cc2cccnc2)[C@@H](C(=O)NO)C(C)C)cc1 [CGS-27023A]
IC50 [3]: 7.7 nM

COc1ccc(S(=O)(=O)N(CCCCc2ccccc2)CC(=O)NO)cc1
inhibition [1]: 83%

COc1ccc(CN(CC(=O)NO)S(=O)(=O)c2ccc(OC)cc2)cc1
inhibition [1]: 89%

COc1ccc(S(=O)(=O)N(CC(=O)NO)CC(C)C)cc1
inhibition [1]: 70%

COc1ccc(S(=O)(=O)N(CCC(C)C)CC(=O)NO)cc1
inhibition [1]: 11%

COc1ccc(S(=O)(=O)N(Cc2ccccc2)[C@H](CCCCNC(=O)Oc2ccccc2)C(=O)NO)cc1
IC50 [3]: 67 nM

COc1ccc(S(=O)(=O)N(CC(=O)NO)CC2CCCCC2)cc1
inhibition [1]: 77%

COc1ccc(S(=O)(=O)N(CC(=O)NO)C(C)C)cc1
inhibition [1]: 0%

COc1ccc(S(=O)(=O)N(Cc2ccccn2)[C@H](CC(C)C)C(=O)NO)cc1
IC50 [3]: 6.9 nM

COc1ccc(S(=O)(=O)N(CCC2CCCCC2)CC(=O)NO)cc1
inhibition [1]: 79%

CCC(C)N(CC(=O)NO)S(=O)(=O)c1ccc(OC)cc1 (stereo not given)
inhibition [1]: 35%

COc1ccc(S(=O)(=O)N(Cc2ccccc2)[C@@H](C)C(=O)NO)cc1
IC50 [3]: 35 nM

CCOCCOc1ccc(S(=O)(=O)N(CC(=O)NO)CC(C)C)cc1
inhibition [1]: 69%

COc1ccc(S(=O)(=O)NCC(=O)NO)cc1
inhibition [1]: 0%

COc1ccc(S(=O)(=O)N(Cc2ccccc2)[C@@H](C(=O)NO)C2CCCC2)cc1
IC50 [3]: 15 nM

CC(C)CN(CC(=O)NO)S(=O)(=O)c1ccccc1
inhibition [1]: 27%

Cc1ccc(S(=O)(=O)N(CC(=O)NO)CC(C)C)cc1
inhibition [1]: 56%

COc1ccc(S(=O)(=O)N(CC(=O)NO)Cc2ccccn2)cc1
inhibition [1]: 88%

COc1ccc(S(=O)(=O)N(CC(=O)NO)Cc2ccc(Cl)cc2)cc1
inhibition [1]: 76%

COc1ccc(S(=O)(=O)N(CCc2ccccc2)CC(=O)NO)cc1
inhibition [1]: 88%

COc1ccc(S(=O)(=O)N(Cc2ccccc2)[C@H](C)C(=O)NO)cc1
IC50 [3]: 9.6 nM

CC(C)CN(CC(=O)NO)S(=O)(=O)c1ccc(F)cc1
inhibition [1]: 22%

CC[C@H](C)C[C@H](C(=O)NO)N(Cc1ccccc1)S(=O)(=O)c1ccc(OC)cc1
IC50 [3]: 16 nM

COc1ccc(S(=O)(=O)N(Cc2ccccc2)[C@@H](C(=O)NO)C(C)C)cc1
IC50 [3]: 4.9 nM

COc1ccc(S(=O)(=O)N(CC(=O)NO)Cc2ccc(-c3ccccc3)cc2)cc1
inhibition [1]: 86%

COc1ccc(S(=O)(=O)N(Cc2cccnc2)[C@@H](C(=O)NOCc2ccccc2)C(C)C)cc1
inhibition [2]: No inhibition

COc1ccc(S(=O)(=O)N(Cc2ccccc2)C(C(=O)NO)C(C)C)cc1 (stereo not given)
IC50 [3]: 16 nM

COc1ccc(S(=O)(=O)N(Cc2ccccc2)[C@@H](C(=O)NO)C2CCNCC2)cc1
IC50 [3]: > 100 nM

CC(C)CN(CC(=O)NO)S(=O)(=O)c1ccc(Cl)cc1
inhibition [1]: 68%

COc1ccc(S(=O)(=O)N(Cc2ccccn2)[C@H](C(=O)NO)C(C)C)cc1
IC50 [3]: 37 nM

COc1ccc(S(=O)(=O)N(CC(=O)NO)Cc2cccnc2)cc1
inhibition [1]: 80%

COc1ccc(S(=O)(=O)N(Cc2ccccc2)[C@H](CC(C)C)C(=O)NO)cc1
IC50 [3]: 13 nM
